Data on 33 compounds can be found in patent publication US11466012B2, “Tetrahydroisoquinoline compounds” (ALLINKY BIOPHARMA, priority 2018, dated 2022).

For orientation: IC50 means the concentration that inhibits the measured activity by half.

Common to all, as to type: cell-based
Assay [1] relates to H358 non-small cell lung cancer line bearing KRas^G12C oncogenic mutation. As to the kind of experiment: Cell proliferation inhibition (MTS), H358. The conditions noted are these: Homo sapiens, NCI-H358. As for the experimental part: (§1) • Cell line #1: A549. Lung carcinoma cell line bearing KRas^G12S oncogenic mutation • Cell line #2: H358. non-small cell lung cancer line bearing KRas^G12C oncogenic mutation • Cell line #3: PANC-1. epithelioid carcinoma of the pancreas cell line bearing KRas^G12D oncogenic mutation • Cell line #4: RPMI. myeloma cell line bearing KRas^G12A oncogenic mutation
(§2) Cell lines were cultured in DMEM or RPMI-1640 supplemented with FBS 10%. In order to assess the antiproliferative effect of compounds, cells were seeded at a density of 1.8×10^3, 6.2×10^3, 7.8×10^3, 21×10^3 and 2×10^3 cells/cm^2, respectively, in tissue culture microplates and were incubated in humidified atmosphere at 5% CO2. 24 h later, compounds dissolved in DMSO 100% were added for different final concentrations ranging between 0.1 and 50 μM for a final DMSO concentration of 0.5% and the plates were incubated for another 72 h. After incubation, proliferation was quantified using CellTiter 96® Aqueous Non-Radioactive Cell Proliferation Assay-MTS (Promega #G5421) following manufacturer instructions. Amount of 490 nm absorbance is directly proportional to the number of living cells. Absorbance was recorded with a BMG Fluostar Optima Microplate Reader and normalized to control with vehicle.

Assay [2] relates to A549 lung carcinoma cell line bearing KRas^G12S oncogenic mutation. As to the kind of experiment: Cell proliferation inhibition (MTS), A549. Conditions: Homo sapiens. As for the experimental part:
as §1, §2

The test system of assay [3] is RPMI-8226 myeloma cell line bearing KRas^G12A oncogenic mutation. As to the kind of experiment: Cell proliferation inhibition (MTS), RPMI-8226. The conditions noted are these: Homo sapiens. As for the experimental part: as §1, §2
Assay [4] concerns PANC-1 epithelioid carcinoma of the pancreas cell line bearing KRas^G12D oncogenic mutation. Nature of the assay: Cell proliferation inhibition (MTS), PANC-1. Conditions: Homo sapiens. As for the experimental part: as §1, §2
The mark [5] stands for this setting: 72 h incubation, MTS, compounds 1-53, median from experimental results.
Setting [6] is: compounds 54-63, based on estimations and/or preliminary experimental results.

With `Cc1ccc(C2c3cc(OCCc4cccnc4)c(F)cc3CCN2C(=O)NCc2cocn2)c(C)c1` (stereo not drawn) [Compound 44], the half-inhibitory concentration (IC50) in assay [1] (setting [5]) is 1010 nM; in assay [2] (setting [5]), 1720 nM; in assay [3] (setting [5]), 990 nM; in assay [4] (setting [5]), 1000 nM.
In the case of `Cc1ccc(C2c3cc(OCCc4cccnc4)c(Cl)cc3CCN2C(=O)NCc2cocn2)c(C)c1` (stereo not drawn) [Compound 38], the IC50 in assay [1] (setting [5]) is 1090 nM; in assay [2] (setting [5]), 430 nM; in assay [3] (setting [5]) it was 220 nM; in assay [4] (setting [5]), 420 nM.
Consider `COc1cc2c(cc1OCCc1cccc(F)c1)C(c1ccc(C)cc1C)N(C(=O)NCc1cocn1)CC2` (stereo not drawn) [Compound 21], for which the IC50 in assay [1] (setting [5]) turned out to be 780 nM; in assay [2] (setting [5]), 1330 nM; in assay [3] (setting [5]) it was 900 nM; in assay [4] (setting [5]) it was 810 nM.
For the compound `COc1cncc(CCOc2cc3c(cc2OC)CCN(C(=O)NCc2cocn2)C3c2ccc(C)cc2C)n1` (stereo not drawn) [Compound 54], the IC50 in assay [1] (setting [6]) was 700 nM; in assay [2] (setting [6]), 600 nM; in assay [3] (setting [6]) it was 500 nM; in assay [4] (setting [6]), 700 nM.
For the compound `COc1cnc(CCOc2cc3c(cc2OC)CCN(C(=O)NCc2cocn2)C3c2ccc(C)cc2C)cn1` (stereo not drawn) [Compound 63], the half-maximal inhibitory concentration (IC50) in assay [1] (setting [6]) is 700 nM; in assay [2] (setting [6]), 600 nM; in assay [3] (setting [6]) it was 500 nM; in assay [4] (setting [6]) it was 700 nM.
In the case of `COc1cc2c(cc1OCCc1cnccn1)C(c1ccc(C)cc1C)N(C(=O)NCc1ccon1)CC2` (stereo not drawn) [Compound 52], the IC50 amounted to 600 nM in assay [1] (setting [5]), 600 nM in assay [2] (setting [5]), 700 nM in assay [3] (setting [5]) and 500 nM in assay [4] (setting [5]).
Consider `COc1cc2c(cc1OCCc1cccc(O)c1)C(c1ccc(C)cc1Cl)N(C(=O)NCc1cocn1)CC2` (stereo not drawn) [Compound 29], for which the IC50 in assay [1] (setting [5]) came out at 960 nM; in assay [2] (setting [5]), 760 nM; in assay [3] (setting [5]), 690 nM; in assay [4] (setting [5]), 680 nM.
With `COc1cc2c(cc1OCCc1ccc(C)nc1)C(c1ccc(C)cc1C)N(C(=O)NCc1cocn1)CC2` (stereo not drawn) [Compound 57], the IC50 in assay [1] (setting [6]) was 600 nM; in assay [2] (setting [6]), 600 nM; in assay [3] (setting [6]), 600 nM; in assay [4] (setting [6]) it was 500 nM.
With `CC(=O)Cc1cc2c(cc1OCCc1cccnc1)C(c1ccc(C)cc1C)N(C(=O)NCc1cocn1)CC2` (stereo not drawn) [Compound 40], the IC50 in assay [1] (setting [5]) is 960 nM; in assay [2] (setting [5]), 820 nM; in assay [3] (setting [5]) it was 1330 nM; in assay [4] (setting [5]), 810 nM.
For `COc1ccc(C2c3cc(OCCc4cccc(O)c4)c(OC)cc3CCN2CCC(C)=O)c(C)c1` (stereo not drawn) [Compound 11], the IC50 in assay [1] (setting [5]) was 8520 nM; in assay [2] (setting [5]), 18000 nM; in assay [3] (setting [5]) it was 1470 nM; in assay [4] (setting [5]), 12300 nM.
As for `Cc1ccc(C2c3cc(OCCc4cccc(O)c4)c(C(=O)O)cc3CCN2C(=O)NCc2cocn2)c(C)c1` (stereo not drawn) [Compound 32], the IC50 in assay [1] (setting [5]) was determined as 310 nM; in assay [2] (setting [5]), 440 nM; in assay [3] (setting [5]) it was 520 nM; in assay [4] (setting [5]), 490 nM.
The corresponding values for `CCC(=O)CCN1CCc2cc(OC)c(OCCc3cccc(O)c3)cc2C1c1ccccc1C` (stereo not drawn) [Compound 9] are 19000 nM, 3650 nM, 740 nM and 24500 nM.
Take `COc1cc2c(cc1OCCc1cccc(NC(C)=O)c1)C(c1ccc(C)cc1C)N(C(=O)NCc1cocn1)CC2` (stereo not drawn) [Compound 47]: the IC50 in assay [1] (setting [5]) turned out to be 1200 nM; in assay [2] (setting [5]), 1500 nM; in assay [3] (setting [5]) it was 1500 nM; in assay [4] (setting [5]) it was 1500 nM.
On to `CC(=O)c1cc2c(cc1OCCc1cccnc1)C(c1ccc(C)cc1C)N(C(=O)NCc1cocn1)CC2` (stereo not drawn) [Compound 39], for which the IC50 stood at 520 nM in assay [1] (setting [5]), 340 nM in assay [2] (setting [5]), 410 nM in assay [3] (setting [5]) and 470 nM in assay [4] (setting [5]).
As to `Cc1ccc(C2c3cc(OCCc4cccnc4)ccc3CCN2C(=O)NCc2cocn2)c(C)c1` (stereo not drawn) [Compound 43], the IC50 in assay [1] (setting [5]) was found to be 910 nM; in assay [2] (setting [5]), 740 nM; in assay [3] (setting [5]), 610 nM; in assay [4] (setting [5]), 880 nM.
In the case of `COc1cc2c(cc1OCCc1ccc3c(c1)CCC3)C(c1ccc(C)cc1C)N(C(=O)NCc1ccncc1)CC2` (stereo not drawn) [Compound 14], the IC50 in assay [1] (setting [5]) was greater than 10000 nM; in assay [2] (setting [5]), greater than 10000 nM; in assay [3] (setting [5]), 3940 nM; in assay [4] (setting [5]), greater than 30000 nM.
On to `COc1cc2c(cc1OCCc1cccc(C(N)=O)c1)C(c1ccc(C)cc1C)N(C(=O)NCc1cocn1)CC2` (stereo not drawn) [Compound 27], for which the IC50 worked out at 1120 nM in assay [1] (setting [5]), 1020 nM in assay [2] (setting [5]), 980 nM in assay [3] (setting [5]) and 1330 nM in assay [4] (setting [5]).
For `CCC(=O)CCN1CCc2cc(OC)c(OCc3cccc(O)c3)cc2C1c1ccc(C)cc1Cl` (stereo not drawn) [Compound 2], in that order: 12100 nM, 8250 nM, 1800 nM and 17300 nM.
For `COc1cc2c(cc1OCCc1nccnc1C)C(c1ccc(C)cc1C)N(C(=O)NCc1cocn1)CC2` (stereo not drawn) [Compound 59], the IC50 in assay [1] (setting [6]) was 700 nM; in assay [2] (setting [6]), 600 nM; in assay [3] (setting [6]), 500 nM; in assay [4] (setting [6]), 7000 nM.
The corresponding values for `COc1cc2c(cc1OCCc1nccnc1OC)C(c1ccc(C)cc1C)N(C(=O)NCc1cocn1)CC2` (stereo not drawn) [Compound 62] are 700 nM, 600 nM, 500 nM and 700 nM.
On to `Cc1ccc(C2c3cc(OCCc4cccnc4)c(NC=O)cc3CCN2C(=O)NCc2cocn2)c(C)c1` (stereo not drawn) [Compound 36], for which the IC50 in assay [1] (setting [5]) was determined as 910 nM; in assay [2] (setting [5]), 730 nM; in assay [3] (setting [5]), 990 nM; in assay [4] (setting [5]), 670 nM.
For `CCC(=O)CCN1CCc2cc(OC)c(OCC(=O)c3cccc(C(=O)OC)c3)cc2C1c1ccc(C)cc1Cl` (stereo not drawn) [Compound 4], in that order: greater than 20000 nM, 10100 nM, 2670 nM and 29700 nM.
For `COc1cc2c(cc1OCCc1cnccn1)C(c1ccc(C)cc1C)N(C(=O)NCc1cocn1)CC2` (stereo not drawn) [Compound 53], in that order: 700 nM, 600 nM, 500 nM and 700 nM.
For `COc1cc2c(cc1OCCc1cccc(O)c1)C(c1c(C)cc(C)cc1O)N(CCC(C)=O)CC2` (stereo not drawn) [Compound 10], in that order: 19800 nM, 15900 nM, 860 nM and 15000 nM.
Take `COc1ccc(CCOc2cc3c(cc2OC)CCN(C(=O)NCc2cocn2)C3c2ccc(C)cc2C)cn1` (stereo not drawn) [Compound 55]: the IC50 in assay [1] (setting [6]) was 600 nM; in assay [2] (setting [6]) it was 600 nM; in assay [3] (setting [6]), 600 nM; in assay [4] (setting [6]) it was 500 nM.
For `COc1cc2c(cc1OCCc1cccc(O)c1)C(c1ccc(C)cc1C)N(C(=O)NCc1ccncc1)CC2` (stereo not drawn) [Compound 16], the concentration for half-maximal inhibition (IC50) in assay [1] (setting [5]) is 7240 nM; in assay [2] (setting [5]), greater than 5000 nM; in assay [3] (setting [5]), 480 nM; in assay [4] (setting [5]) it was 12000 nM.
For `CCC(=O)CN1CCc2cc(OC)c(OCCc3cccc(O)c3)cc2C1c1ccc(C)cc1Cl` (stereo not drawn) [Compound 12], in that order: 16800 nM, 8990 nM, 4980 nM and 13600 nM.
For the compound `CCC(=O)CCN1CCc2cc(OC)c(OCCc3cccc(O)c3)cc2C1c1ccc(C)cc1C` (stereo not drawn) [Compound 7], the IC50 was 18100 nM in assay [1] (setting [5]), 6340 nM in assay [2] (setting [5]), 2410 nM in assay [3] (setting [5]) and 24800 nM in assay [4] (setting [5]).
The corresponding values for `COc1cc2c(cc1OCCc1cccc(OC(C)=O)c1)C(c1ccc(C)cc1C)N(C(=O)NCc1cocn1)CC2` (stereo not drawn) [Compound 3] are 1660 nM, 1970 nM, 1210 nM and 1590 nM.
The corresponding values for `COc1cc2c(cc1OCCc1ccc3c(c1)CCO3)C(c1ccc(C)cc1C)N(C(=O)NCc1ccncc1)CC2` (stereo not drawn) [Compound 15] are 2580 nM, 2140 nM, 890 nM and 2130 nM.
Regarding `Cc1ccc(C2c3cc(OCCc4cccc(O)c4)c(C(N)=O)cc3CCN2C(=O)NCc2cocn2)c(C)c1` (stereo not drawn) [Compound 24], the IC50 in assay [1] (setting [5]) worked out at 840 nM; in assay [2] (setting [5]) it was 740 nM; in assay [3] (setting [5]), 870 nM; in assay [4] (setting [5]), 660 nM.
As for `Cc1ccc(C2c3cc(OCCc4cccc(C(N)=O)c4)c(C(N)=O)cc3CCN2C(=O)NCc2cocn2)c(C)c1` (stereo not drawn) [Compound 28], the IC50 is 1230 nM in assay [1] (setting [5]), 1560 nM in assay [2] (setting [5]), 1020 nM in assay [3] (setting [5]) and 2010 nM in assay [4] (setting [5]).
For `C=CC(=O)Nc1cc2c(cc1OCCc1cccnc1)C(c1ccc(C)cc1C)N(C(=O)NCc1cocn1)CC2` (stereo not drawn) [Compound 45], in that order: 990 nM, 790 nM, 890 nM and 870 nM.
